Among the data in patent US20250161307A1, “PYRAZOLOPYRIMIDINES AS MODULATORS OF SPERMINE OXIDASE” (Janssen Pharmaceutica NV, priority 2022, published 2025) are IC50 values, retold here.

Bounds are passed on as bounds.

One experiment concerns the target hPAOX (Homo sapiens (Human), UniProt Q6QHF9). Nature of the experiment: Human PAOX assay (HyPerBlu chemiluminescent detection of hydrogen peroxide). The format is biochemical. As to conditions: 60 pM recombinant PAOX, 20 μM N-acetylspermine substrate. As to the method: (§1) The direct detection of hydrogen peroxide produced from the enzymatic reaction of hSMOX or hPAOX in a biochemical assay format was measured using HyPerBlu (Lumigen, Southfield, MI), a small molecule boronate probe that reacts with hydrogen peroxide to generate a chemiluminescent signal. Inhibition of hSMOX or hPAOX enzyme results in a decrease in luminescence.
The hPAOX assay was run and the data analyzed similarly to the hSMOX assay described above, except the reactions contained 60 pM recombinant PAOX with an N-terminal His tag expressed from sf9 insect cells and used 20 μM N-acetylspermine as the substrate.

A further experiment concerns the target SMOX (Homo sapiens (Human), UniProt Q9NWM0). Briefly: Human SMOX assay (HyPerBlu chemiluminescent detection of hydrogen peroxide). The note with it: 2.5 nM full length hSMOX, spermine substrate, 1 h at room temperature, luminescence read; read-out: SMOx_IC50. The format is biochemical. As to the method:
as §1
Test compounds (75 nL) dissolved in DMSO were added to a 384-well white assay plate (Greiner Bio-one, catalog #784075) using an ECHO Acoustic Dispenser (Labcyte). Each compound was serially diluted 3-fold in DMSO to prepare an 11-point dose response curve (columns 1-22). Column 23 and 24 contained 75 nL of 2 mM chlorhexidine and DMSO, respectively, to represent the 100% inhibited versus the neutral control reactions.
Subsequently, 3 μL/well of the substrate solution prepared in assay buffer (10 mM Hepes, pH 7.4, 150 mM NaCl, 1 mM EGTA, 0.01% Pluronic F-127, 0.05% ovalbumin) was dispensed into the assay plate followed by 3 μL/well of full length hSMOX enzyme with an N-terminal His tag from E. coli prepared in assay buffer to initiate the reactions. After a 1 h incubation at room temperature, 6 μL/well of HyPerBlu was added. After a 30 min incubation, the hydrogen peroxide product generated from the hSMOX reactions was measured using an endpoint luminescence read on the PHERAStar FS/FSX microplate reader (BMG LABTECH).
The final assay conditions included 10 mM Hepes, pH 7.4, 150 mM NaCl, 1 mM EGTA, 0.01% Pluronic F-127, 0.05% ovalbumin, 2.5 nM hSMOX, 30 µM spermine, and 1.25% DMSO.
Dose-response curves were fit and compound IC50 values were determined using Genedata Screener (Genedata AG).

Chain of SMOX (Q9NWM0 whole entry): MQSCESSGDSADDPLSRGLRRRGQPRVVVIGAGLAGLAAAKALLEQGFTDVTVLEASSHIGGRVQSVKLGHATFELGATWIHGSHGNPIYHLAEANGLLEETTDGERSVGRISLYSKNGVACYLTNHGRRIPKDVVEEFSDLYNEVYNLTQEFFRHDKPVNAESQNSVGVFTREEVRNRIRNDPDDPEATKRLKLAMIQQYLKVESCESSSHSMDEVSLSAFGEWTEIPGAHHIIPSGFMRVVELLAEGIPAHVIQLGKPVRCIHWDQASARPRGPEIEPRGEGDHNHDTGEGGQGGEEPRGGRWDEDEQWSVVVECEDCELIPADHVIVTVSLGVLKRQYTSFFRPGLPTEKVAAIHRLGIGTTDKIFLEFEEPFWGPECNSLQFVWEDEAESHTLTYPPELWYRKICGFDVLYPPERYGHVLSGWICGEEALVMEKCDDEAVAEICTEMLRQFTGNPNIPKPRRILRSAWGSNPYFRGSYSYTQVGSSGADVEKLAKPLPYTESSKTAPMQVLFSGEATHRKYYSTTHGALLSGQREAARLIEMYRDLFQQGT
Chain of hPAOX (Q6QHF9 whole entry): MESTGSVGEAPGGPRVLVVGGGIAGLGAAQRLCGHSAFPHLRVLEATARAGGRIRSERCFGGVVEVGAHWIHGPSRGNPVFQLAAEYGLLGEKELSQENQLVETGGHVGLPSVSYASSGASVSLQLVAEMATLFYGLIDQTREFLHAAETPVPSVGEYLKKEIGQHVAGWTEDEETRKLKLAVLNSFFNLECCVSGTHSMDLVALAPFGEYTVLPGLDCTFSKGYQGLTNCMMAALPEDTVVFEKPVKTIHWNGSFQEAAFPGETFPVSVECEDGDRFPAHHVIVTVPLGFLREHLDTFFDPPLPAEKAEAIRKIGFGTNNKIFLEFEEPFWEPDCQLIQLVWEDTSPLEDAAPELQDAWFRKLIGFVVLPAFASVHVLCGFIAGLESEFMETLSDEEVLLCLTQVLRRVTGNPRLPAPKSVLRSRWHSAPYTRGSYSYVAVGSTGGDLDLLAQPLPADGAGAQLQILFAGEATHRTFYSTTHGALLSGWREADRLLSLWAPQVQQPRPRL

`Cc1c(C(=O)NC2CCN(C)C2)nn2c(-c3ccccc3)cc(-c3ccccc3)nc12` (stereo not shown) [Example 51, 3-Methyl-N-(1-methylpyrrolidin-3-yl)-5,7-diphenylpyrazolo[1,5-a]pyrimidine-2-carboxamide]: the results for the IC50 at hPAOX and at SMOX were 7710 nM and 821 nM, respectively.

With `COc1ccccc1-c1cc(-c2ccccc2)nc2cc(C(=O)NCCCn3ccnc3)nn12` [Example 80, N-(3-(1H-imidazol-1-yl)propyl)-7-(2-methoxyphenyl)-5-phenylpyrazolo[1,5-a]pyrimidine-2-carboxamide], the IC50 at hPAOX came to 289 nM; at SMOX, 285 nM.

For `O=C(NC1CN(Cc2ccccc2)C1)c1cc2nc(-c3ccccc3)cc(-c3ccccc3)n2n1` [Example 3, N-(1-Benzylazetidin-3-yl)-5,7-diphenylpyrazolo[1,5-a]pyrimidine-2-carboxamide], the IC50 stood at 4540 nM on hPAOX and 4360 nM on SMOX.

As to `CN1CC(NC(=O)c2nn3c(-c4ccccc4)cc(-c4ccccc4)nc3c2Cl)C1` [Example 49, 3-Chloro-N-(1-methylazetidin-3-yl)-5,7-diphenylpyrazolo[1,5-a]pyrimidine-2-carboxamide], the IC50 at hPAOX turned out to be 9060 nM; at SMOX, 108 nM.

Turning to `O=C(NCCCN1CCC1)c1cc2nc(-c3ccccc3)cc(-c3ccccc3)n2n1` [Example 35, N-(3-(Azetidin-1-yl)propyl)-5,7-diphenylpyrazolo[1,5-a]pyrimidine-2-carboxamide], the IC50 stood at 362 nM on hPAOX and 523 nM at SMOX.

Regarding `O=C(NCCN1CCOCC1)c1cc2nc(-c3ccccc3)cc(-c3ccccc3)n2n1` [Example 122, N-(2-morpholinoethyl)-5,7-diphenylpyrazolo[1,5-a]pyrimidine-2-carboxamide], the IC50 on hPAOX is over 31200 nM; at SMOX, 20600 nM.

For the molecule `CN1CC(N(C)C(=O)c2cc3nc(-c4ccccc4)cc(-c4ccccc4)n3n2)C1` [Example 45, N-Methyl-N-(1-methylazetidin-3-yl)-5,7-diphenylpyrazolo[1,5-a]pyrimidine-2-carboxamide], the IC50 amounted to 11600 nM at hPAOX and 1820 nM at SMOX.

With `O=C(NCCc1ccccc1)c1cc2nc(-c3ccccc3)cc(-c3ccccc3)n2n1` [Example 40, N-Phenethyl-5,7-diphenylpyrazolo[1,5-a]pyrimidine-2-carboxamide], the IC50 at hPAOX and on SMOX was over 31200 nM in each case.

`O=C(NC1CCN(Cc2ccccc2)C1)c1cc2nc(-c3ccccc3)cc(-c3ccccc3)n2n1` (stereo not shown) [Example 16, N-(1-Benzylpyrrolidin-3-yl)-5,7-diphenylpyrazolo[1,5-a]pyrimidine-2-carboxamide]: the results for the IC50 on hPAOX and at SMOX were 4360 nM and 412 nM, respectively.

As for `CN1CC(CNC(=O)c2cc3nc(-c4ccccc4)cc(-c4ccccc4)n3n2)C1` [Example 29, N-((1-Methylazetidin-3-yl)methyl)-5,7-diphenylpyrazolo[1,5-a]pyrimidine-2-carboxamide], the IC50 at hPAOX was 1760 nM; at SMOX it was 480 nM.

For `O=C(NCC1CCCN1)c1cc2nc(-c3ccccc3)cc(-c3ccccc3)n2n1` (stereo not shown) [Example 117, 5,7-diphenyl-(pyrrolidin-2-ylmethyl)pyrazolo[1,5-a]pyrimidine-2-carboxamide], the IC50 at hPAOX was determined as 197 nM; on SMOX, 142 nM.

In the case of `O=C(NCCc1ncc[nH]1)c1cc2nc(-c3ccccc3)cc(-c3ccccc3)n2n1` [Example 25, N-(2-(1H-Imidazol-2-yl)ethyl)-5,7-diphenylpyrazolo[1,5-a]pyrimidine-2-carboxamide], the values for the IC50 at hPAOX and on SMOX were 35 nM and 253 nM, respectively.

With `CC(C)N1CCC(NC(=O)c2cc3nc(-c4ccccc4)cc(-c4ccccc4)n3n2)C1` (stereo not shown) [Example 4, N-(1-Isopropylpyrrolidin-3-yl)-5,7-diphenylpyrazolo[1,5-a]pyrimidine-2-carboxamide], the IC50 was 8720 nM at hPAOX and 599 nM on SMOX.

In the case of `Cc1cc(-c2ccccc2)nc2cc(C(=O)NCCCn3ccnc3)nn12` [Example 123, N-(3-(1H-imidazol-1-yl)propyl)-7-methyl-5-phenylpyrazolo[1,5-a]pyrimidine-2-carboxamide], the IC50 at hPAOX was determined as 4040 nM; on SMOX, 9770 nM.

In the case of `CN1CC(NC(=O)c2cc3nc(N4CCC4)cc(-c4ccccc4)n3n2)C1` [Example 100, 5-(azetidin-1-yl)-N-(1-methylazetidin-3-yl)-7-phenylpyrazolo[1,5-a]pyrimidine-2-carboxamide], the IC50 at hPAOX is over 31200 nM; at SMOX, 4010 nM.

Turning to `CC1C(NC(=O)c2cc3nc(-c4ccccc4)cc(-c4ccccc4)n3n2)CN1C` (stereo not shown) [Example 55, N-(1,2-Dimethylazetidin-3-yl)-5,7-diphenylpyrazolo[1,5-a]pyrimidine-2-carboxamide], the IC50 was 6530 nM on hPAOX and 593 nM at SMOX.

Regarding `CN1CC[C@H](NC(=O)c2cc3nc(-c4ccccc4)cc(-c4ccccc4)n3n2)C1` [Example 7, (S)—N-(1-Methylpyrrolidin-3-yl)-5,7-diphenylpyrazolo[1,5-a]pyrimidine-2-carboxamide], the IC50 came out at 1330 nM at hPAOX and 712 nM on SMOX.

On to `O=C(NCCCn1ccnc1)c1cc2nc(-c3ccccc3)cc(N3CCCC3)n2n1` [Example 66, N-(3-(1H-imidazol-1-yl)propyl)-5-phenyl-7-(pyrrolidin-1-yl)pyrazolo[1,5-a]pyrimidine-2-carboxamide], for which the IC50 at hPAOX came out at 2500 nM; at SMOX, 395 nM.

`CN1CC(NC(=O)c2cc3nc(N4CCCC4)cc(-c4ccccc4)n3n2)C1` [Example 98, N-(1-methylazetidin-3-yl)-7-phenyl-5-(pyrrolidin-1-yl)pyrazolo[1,5-a]pyrimidine-2-carboxamide]: the IC50 on hPAOX was over 31200 nM; at SMOX, 4590 nM.

Take `CCN1CCC(NC(=O)c2cc3nc(-c4ccccc4)cc(-c4ccccc4)n3n2)C1` (stereo not shown) [Example 5, N-(1-Ethylpyrrolidin-3-yl)-5,7-diphenylpyrazolo[1,5-a]pyrimidine-2-carboxamide]: the results for the IC50 on hPAOX and on SMOX were 914 nM and 367 nM, respectively.

In the case of `Cc1c(C(=O)NCC2(C)CCN(C)C2)nn2c(-c3ccccc3)cc(-c3ccccc3)nc12` (stereo not shown) [Example 54, N-((1,3-Dimethylpyrrolidin-3-yl)methyl)-3-methyl-5,7-diphenylpyrazolo[1,5-a]pyrimidine-2-carboxamide], the IC50 on hPAOX stood at 30300 nM; at SMOX, 1490 nM.

As for `O=C(NCCCn1ccnc1)c1cc2nc(-c3ccccc3)cc(C3CC3)n2n1` [Example 113, N-(3-(1H-imidazol-1-yl)propyl)-7-cyclopropyl-5-phenylpyrazolo[1,5-a]pyrimidine-2-carboxamide], the IC50 was determined as 2290 nM on hPAOX and 1200 nM on SMOX.

Regarding `O=C(NCCCN1CCOCC1)c1cc2nc(-c3ccccc3)cc(-c3ccccc3)n2n1` [Example 13, N-(3-Morpholinopropyl)-5,7-diphenylpyrazolo[1,5-a]pyrimidine-2-carboxamide], the results for the IC50 at hPAOX and on SMOX were 5260 nM and 604 nM, respectively.

With `CN(CCCn1ccnc1)C(=O)c1cc2nc(-c3ccccc3)cc(-c3ccccc3)n2n1` [Example 11, N-(3-(1H-Imidazol-1-yl)propyl)-N-methyl-5,7-diphenylpyrazolo[1,5-a]pyrimidine-2-carboxamide], the figures for the IC50 on hPAOX and at SMOX were 10300 nM and 567 nM, respectively.

Take `O=C(NCC1CCN(C2CC2)C1)c1cc2nc(-c3ccccc3)cc(-c3ccccc3)n2n1` (stereo not shown) [Example 22, N-((1-Cyclopropylpyrrolidin-3-yl)methyl)-5,7-diphenylpyrazolo[1,5-a]pyrimidine-2-carboxamide]: the IC50 at hPAOX was 535 nM; on SMOX, 691 nM.

For `O=C(NCCc1c[nH]cn1)c1cc2nc(-c3ccccc3)cc(-c3ccccc3)n2n1` [Example 34, N-(2-(1H-Imidazol-4-yl)ethyl)-5,7-diphenylpyrazolo[1,5-a]pyrimidine-2-carboxamide], the IC50 on hPAOX amounted to 11 nM; on SMOX, 262 nM.

As for `CN1CCN(c2cc(-c3ccccc3)nc3cc(C(=O)NCCCn4ccnc4)nn23)CC1` [Example 60, N-(3-(1H-Imidazol-1-yl)propyl)-7-(4-methylpiperazin-1-yl)-5-phenylpyrazolo[1,5-a]pyrimidine-2-carboxamide], the figures for the IC50 on hPAOX and on SMOX were 24800 nM and over 31200 nM, respectively.

As to `COc1ccc(-c2cc(-c3ccccc3)nc3cc(C(=O)NCCCn4ccnc4)nn23)cc1` [Example 79, N-(3-(1H-imidazol-1-yl)propyl)-7-(4-methoxyphenyl)-5-phenylpyrazolo[1,5-a]pyrimidine-2-carboxamide], the IC50 on SMOX is 242 nM.
